US20230303552A1, “ARYLSULFONYL DERIVATIVES AND THEIR USE AS MUSCARINIC ACETYLCHOLINE RECEPTOR M5 INHIBITORS” (Vanderbilt University, priority 2020, published 2023)

Target: T1, human M5 receptors (hM5) (Homo sapiens, UniProt P08912)
T1 construct: expressed in transfected cells
T1 sequence (P08912 1-532): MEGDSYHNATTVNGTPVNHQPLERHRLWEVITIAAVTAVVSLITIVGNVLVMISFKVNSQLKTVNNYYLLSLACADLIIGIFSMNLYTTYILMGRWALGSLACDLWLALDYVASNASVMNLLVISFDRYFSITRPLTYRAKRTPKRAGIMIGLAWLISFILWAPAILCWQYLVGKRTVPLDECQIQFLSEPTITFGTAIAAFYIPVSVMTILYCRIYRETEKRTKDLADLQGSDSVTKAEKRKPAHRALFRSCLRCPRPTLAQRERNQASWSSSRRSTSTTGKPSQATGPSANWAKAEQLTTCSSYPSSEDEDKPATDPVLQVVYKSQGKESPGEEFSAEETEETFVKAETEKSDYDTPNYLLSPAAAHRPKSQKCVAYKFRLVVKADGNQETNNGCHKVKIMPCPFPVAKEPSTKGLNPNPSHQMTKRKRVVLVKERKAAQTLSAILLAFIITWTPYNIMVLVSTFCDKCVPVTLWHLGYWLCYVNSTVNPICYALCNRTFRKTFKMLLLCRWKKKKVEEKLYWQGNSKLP
Assay: Cell-based functional calcium mobilization assay of mAChR M5 activity (inhibition of EC80 acetylcholine response) in CHO cells
Conditions: CHO cells stably expressing hM5; for IC50: calcium flux (Fluo-4), EC80 acetylcholine addition; for EC80 MIN: minimum of EC80 acetylcholine response, normalized to maximum acetylcholine response
How it was run: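 CHO cells stably expressing human M5, loaded with Fluo-4 AM in HBSS/20 mM HEPES/2.5 mM probenecid pH 7.4. Compound added 140 s before acetylcholine EC20, then EC80 added 125 s later. Calcium flux normalized to maximal acetylcholine response; IC50 from ten-point curves in the EC80 window.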

SMILES	IC50 [nM]	EC80 MIN [%]
CC1(C)COc2ccc(S(=O)(=O)N3CCC(C(=O)Nc4ccc5scnc5c4)CC3)cc21 [Compound 126, N-(benzo[d]thiazol-5-yl)-1-((3,3-dimethyl-2,3-dihydrobenzofuran-5-yl)sulfonyl)piperidine-4-carboxamide]	> 10000	55
CC1(C)COc2ccc(S(=O)(=O)N3CC[C@@H](C(=O)Nc4ccc5scnc5c4)C3)cc21 [Compound 127, (R)-N-(benzo[d]thiazol-5-yl)-1-((3,3-dimethyl-2,3-dihydrobenzofuran-5-yl)sulfonyl)pyrrolidine-3-carboxamide]	> 10000	8
C[C@H]1CN(S(=O)(=O)c2ccc3c(c2)C(C)(C)CO3)C[C@@H]1C(=O)Nc1ccc2scnc2c1 [Compound 128, (3R,4R)-N-(benzo[d]thiazol-5-yl)-1-((3,3-dimethyl-2,3-dihydrobenzofuran-5-yl)sulfonyl)-4-methylpyrrolidine-3-carboxamide]	> 10000	29
C[C@@H]1CN(S(=O)(=O)c2ccc3c(c2)C(C)(C)CO3)C[C@@H]1C(=O)Nc1ccc2scnc2c1 [Compound 129]	6490	4
O=C(Nc1ccc2cccnc2c1)C1CCN(S(=O)(=O)c2ccc3c(c2)CCO3)CC1 [Compound 135, 1-((2,3-dihydrobenzofuran-5-yl)sulfonyl)-N-(quinolin-7-yl)pipcridinc-4-carboxamide]	1800	3
O=C(Nc1ccc2scnc2c1)[C@@H]1CCN(S(=O)(=O)c2ccc3ncsc3c2)C1 [Compound 136, (R)-N-(benzo[d]thiazol-5-yl)-1-(benzo[d]thiazol-6-ylsulfonyl)pyrrolidine-3-carboxamide]	290	2
Cc1nn(C)cc1S(=O)(=O)N1CC[C@@H](C(=O)Nc2ccc3scnc3c2)C1 [Compound 137, (R)-N-(benzo[d]thiazol-5-yl)-1-((1,3-dimethyl-1H-pyrazol-4-yl)sulfonyl)pyrrolidine-3-carboxamide]	> 10000	6
CC1(C)CN(S(=O)(=O)c2ccc3c(c2)CCO3)CCC1C(=O)Nc1ccc2scnc2c1 (stereo not shown) [Compound 138, N-(benzo[d]thiazol-5-yl)-1-((2,3-dihydrobenzofuran-5-yl)sulfonyl)-3,3-dimethylpiperidine-4-carboxamide]	> 10000	7
[2H]C1([2H])Oc2ccc(S(=O)(=O)N3CCC(C(=O)Nc4ccc5scnc5c4)CC3)cc2C1([2H])[2H] [Compound 139, N-(benzo[d]thiazol-5-yl)-1-((2,3-dihydrobenzofuran-5-yl-2,2,3,3-d4)sulfonyl)piperidine-4-carboxamide]	76	2
[2H]C1([2H])Oc2ccc(S(=O)(=O)N3CC[C@@H](C(=O)Nc4ccc5scnc5c4)C3)cc2C1([2H])[2H] [Compound 140]	35	2
CC1(C)CN(S(=O)(=O)c2ccc3ncsc3c2)CCC1C(=O)Nc1ccc2scnc2c1 (stereo not shown) [Compound 141, N-(benzo[d]thiazol-5-yl)-1-(benzo[d]thiazol-6-ylsulfonyl)-3,3-dimethylpiperidine-4-carboxamide]	> 10000	38
CC1(C)CN(S(=O)(=O)c2ccc(Cl)nc2)CCC1C(=O)Nc1ccc2scnc2c1 (stereo not shown) [Compound 142]	4440	3
Cc1nn(C)cc1S(=O)(=O)N1CCC(C(=O)Nc2ccc3scnc3c2)C(C)(C)C1 (stereo not shown) [Compound 143, N-(benzo[d]thiazol-5-yl)-1-((1,3-dimethyl-1H-pyrazol-4-yl)sulfonyl)-3,3-dimethylpiperidine-4-carboxamide]	> 10000	40
CC1(C)CN(S(=O)(=O)c2cc3c(cc2F)OCC3)CCC1C(=O)Nc1ccc2scnc2c1 (stereo not shown) [Compound 144, N-(benzo[d]thiazol-5-yl)-1-((6-fluoro-2,3-dihydrobenzofuran-5-yl)sulfonyl)-3,3-dimethylpiperidine-4-carboxamide]	> 10000	25
O=C(Nc1ccc2scnc2c1)C1CCN(S(=O)(=O)c2cc3c(cc2F)OCC3)CC1(F)F (stereo not shown) [Compound 147, N-(benzo[d]thiazol-5-yl)-3,3-difluoro-1-((6-fluoro-2.3-dihydrobenzofuran-5-yl)sulfonyl)piperidine-4-carboxamide]	404	2
[2H]C1([2H])Oc2ccc(S(=O)(=O)N3C[C@@H](C)[C@@H](C(=O)Nc4ccc5scnc5c4)C3)cc2C1([2H])[2H] [Compound 148, (3R,4S)-N-(benzo[d]thiazol-5-yl)-1-((2,3-dihydrobenzofuran-5-yl-2,2,3,3-d4)sulfonyl)-4-methylpyrrolidine-3-carboxamide]	30	3
Cc1noc2ncc(S(=O)(=O)N3CC[C@@H](C(=O)Nc4ccc5scnc5c4)C3)cc12 [Compound 149, (R)-N-(benzuo[d]thiazo1-5-yl)-1-((3-methylisoxazolo[5,4-b]pyridin-5-yl)sulfonyl)pyrrolidine-3-carboxamide]	> 10000	36
O=C(Nc1ccc2scnc2c1)[C@@H]1CCN(S(=O)(=O)c2ccc3c(c2)CCC3)C1 [Compound 150, (R)-N-(benzo[d]thiazol-5-yl)-1-((2,3-dihydro-1H-inden-5-yl)sulfonyl)pyrrolidine-3-carboxamide]	> 10000	–
Cc1noc(C)c1S(=O)(=O)N1CC[C@@H](C(=O)Nc2ccc3scnc3c2)C1 [Compound 151, (R)-N-(benzo[d]thiazo1-5-yl)-1-((3,5-dimethylisoxazol-4-yl)sulfonyl)pyrrolidine-3-carboxamide]	3840	5
O=C(Nc1ccc2scnc2c1)[C@@H]1CCN(S(=O)(=O)c2ccc3ncccc3c2)C1 [Compound 152, (R)-N-(benzo[d]thiazol-5-yl)-1-(quinolin-6-ylsulfonyl)pyrrolidine-3-carboxamide]	352	3
COc1ccc(S(=O)(=O)N2CC[C@@H](C(=O)Nc3ccc4scnc4c3)C2)c(C)c1 [Compound 153, (R)-N-(benzo[d]thiazo1-5-yl)-1-((4-methoxy-2-methylphenyl)sulfonyl)pyrr olidine-3-carboxarnide]	1470	3
O=C(Nc1ccc2scnc2c1)[C@@H]1CCN(S(=O)(=O)c2ccc3c(c2)OCO3)C1 [Compound 154, (R)-1-(benzo[d][1,3]dioxol-5-yisulfonyl)-N-(benzo[d]thiazol-5-yl)pyrrolidine-3-carboxamide]	350	3
O=C(Nc1ccc2scnc2c1)C1CCN(S(=O)(=O)c2ccccc2-c2ccno2)CC1 [Compound 155, N-(benzo[d]thiazol-5-yl)-1-((2-(isoxazol-5-yl)phenyl)sulfonyl)piperidine-4-carboxamide]	> 10000	54
O=C(Nc1ccc2scnc2c1)C1CCN(S(=O)(=O)c2ccccc2F)CC1 [Compound 156, N-(benzo[d]thiazol-5-yl)-1-((2-fluorophcnyl)sulfonyl)piper idine-4-carboxaniide]	> 10000	6
Cn1cc(S(=O)(=O)N2CCC(C(=O)Nc3ccc4scnc4c3)CC2)c(C(F)(F)F)n1 [Compound 157, N-(benzo[d]thiazol-5-yl)-1-((1-methyl-3-(trifluoromethyl)-1H-pyrazo1-4-yl)sulfonyl)piperidine-4-carboxamide]	2340	4
